One assay concerns K562. Description: Cytotoxicity against human K562 cells assessed as decrease in cell viability after 48 hrs by MTT assay. The assay is classed as functional, cell-based. The settings on record: K562, 48 h. (In general: Tetrazolium dyes change colour on reduction, which living cells bring about.)
Assay [1] in a line: Cytotoxicity against human Huh7.5 cells assessed as decrease in cell viability after 48 hrs by MTT assay. The assay is classed as functional, cell-based. The note with it: Huh7.5, 48 h.
For the next assay, the system named is L02. Description: Cytotoxicity against human LO2 cells assessed as decrease in cell viability after 48 hrs by MTT assay. The settings on record: L02, 48 h. It counts as ADME, cell-based.
The next assay concerns HCT-116. Description: Cytotoxicity against human HCT116 cells assessed as decrease in cell viability after 48 hrs by MTT assay. The settings on record: HCT-116, 48 h. It counts as functional, cell-based.

Some results are limits rather than exact numbers.

Broadly, the IC50 is the point on the concentration scale where inhibition reaches its midpoint. Consider `CC(=O)N[C@@H]1C[C@H]2O[C@@](C)([C@@H]1O)n1c3ccccc3c3c4c(c5c6ccccc6n2c5c31)C(=O)NC4`, for which the IC50 in the assay on K562 was 5.2 µM; in assay [1] it was 2.1 µM; with L02, 24.2 µM; in the assay on HCT-116, 1 µM.
For `C[C@]12O[C@H](C[C@@H](N)[C@H]1O)n1c3ccccc3c3c4c(c5c6ccccc6n2c5c31)CNC4=O`, the 50% inhibitory concentration (IC50) in the assay on K562 turned out to be 0.9 µM; in assay [1], 0.4 µM; in the assay with L02, 2.7 µM; in the assay with HCT-116 it was 0.2 µM.
For `C[C@@H]1O[C@@H](n2c3ccccc3c3c4c(c5c6ccccc6[nH]c5c32)CNC4=O)[C@H](O)[C@H](O)[C@H]1O`, in that order: > 100 µM, 46 µM, 73.8 µM and 9 µM.
For `CC(=O)N[C@@H]1C[C@H]2O[C@@](C)([C@@H]1O)n1c3ccc(O)cc3c3c4c(c5c6ccccc6n2c5c31)C(=O)NC4`, in that order: 8.8 µM, > 100 µM, > 100 µM and 2.7 µM.
As for `CC(=O)c1cccn1[C@@H]1C[C@H]2O[C@@](C)([C@@H]1O)n1c3ccccc3c3c4c(c5c6ccccc6n2c5c31)C(=O)NC4`, the IC50 in the assay on K562 is 10.5 µM; in assay [1], 2.7 µM; in the assay with L02, > 100 µM; with HCT-116, 3.9 µM.
`C[C@@H]1O[C@@H](n2c3ccccc3c3c4c(c5c6ccccc6[nH]c5c32)CNC4=O)C[C@@H](N)[C@H]1O`: the IC50 in the assay with K562 came to 7.7 µM; in assay [1], 7 µM; in the assay on L02, 5.8 µM; with HCT-116, 5.1 µM.
With `CC(=O)N[C@@H]1C[C@H](n2c3ccccc3c3c4c(c5c6ccccc6[nH]c5c32)CNC4=O)O[C@@H](C)[C@@H]1O`, the IC50 is 32.4 µM in the assay on K562, 35.2 µM in assay [1], 41.1 µM in the assay on L02 and > 100 µM with HCT-116.
